The target in assay [1] is T1, Recombinant human SHP2 full-length protein (Homo sapiens, UniProt Q06124).
T1 construct: Recombinant human SHP2 full-length protein
T1 sequence (Q06124 1-593): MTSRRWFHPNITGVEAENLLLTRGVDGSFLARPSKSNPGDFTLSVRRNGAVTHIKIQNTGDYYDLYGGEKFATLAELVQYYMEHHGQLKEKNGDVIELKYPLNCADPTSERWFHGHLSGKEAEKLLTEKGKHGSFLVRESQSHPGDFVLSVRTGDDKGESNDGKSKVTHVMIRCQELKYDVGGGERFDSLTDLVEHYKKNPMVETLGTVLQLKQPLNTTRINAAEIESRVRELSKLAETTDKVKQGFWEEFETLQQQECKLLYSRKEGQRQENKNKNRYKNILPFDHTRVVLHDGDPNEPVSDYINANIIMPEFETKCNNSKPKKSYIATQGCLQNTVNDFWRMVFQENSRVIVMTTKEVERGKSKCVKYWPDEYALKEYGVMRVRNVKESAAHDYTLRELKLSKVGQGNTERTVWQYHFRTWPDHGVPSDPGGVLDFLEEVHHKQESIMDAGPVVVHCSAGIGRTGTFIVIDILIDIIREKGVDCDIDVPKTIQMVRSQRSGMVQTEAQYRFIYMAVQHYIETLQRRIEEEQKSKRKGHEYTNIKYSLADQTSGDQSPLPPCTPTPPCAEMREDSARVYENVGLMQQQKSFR
The experiment in a line: SHP2 activity inhibition measurement (fluorescence detection, surrogate substrate DiFMUP). The following applies: recombinant human SHP2 full-length protein activated with diphosphopeptide. In kind it is biochemical. Here is the method: SHP2 activity inhibition measurement
The effect of the compound of the present invention on SHP2 activity is evaluated by rapid fluorescence detection method using the surrogate substrate DiFMUP.
(§1) The experimental method is outlined as follows:
Recombinant human SHP2 full-length protein was expressed and purified by the protein purification and identification platform of Tsinghua University; diphosphopeptide (H2N-LN(pY)IDLDLV-(dPEG8)LST(pY)ASINFQK-amide) was synthesized by Nanjing GenScript Biotechnology Co., Ltd.; surrogate substrate DiFMUP was purchased from Thermo Fisher Scientific (Cat. No. D6567); reaction buffer contained the following components: 60 mM HEPES (pH 7.2), 75 mM NaCl, 75 mM KCl, 1 mM EDTA, 0.05% TWEEN 20, and 5 mM DTT.
The compound was dissolved in DMSO (Sigma, Cat. No. D5879) and diluted to 100 μM. The resulting solution was serially diluted 4-fold with DMSO to a minimum concentration of 6.1 nM, and each concentration point was diluted 25-fold with the reaction buffer.
10 μL of compound solution and 10 μL of 0.25 nM SHP2 protein solution were added to a 384-well microplate (Corning, Cat. No. 3575), mixed well, and incubated at room temperature for 30 min. 10 μL of 0.5 μM diphosphopeptide (dissolved in the reaction buffer) was added, mixed well, and incubated at room temperature for 30 to 60 min. Subsequently, 10 μL of 60 μM DiFMUP solution (dissolved in the reaction buffer) was added, mixed well, and let stand at room temperature. After 30 min, fluorescence signals were measured at 340 nm (excitation wavelength)/450 nm (emission wavelength) using a microplate reader (EnSpire, Perkin Elmer). The fluorescence intensity value was positively correlated with the degree of dephosphorylation of the substrate, thereby reflecting the catalytic activity of SHP2. […] An inhibition curve of the compound was plotted by XLfit software and the inhibitory IC50 was calculated.

The subject of assay [2] is human non-small cell lung cancer cell line NCI-H358. As to the kind of experiment: NCI-H358 cell proliferation inhibition (luminescent cell viability assay, CTG). In kind it is cell-based. The following applies: 120 h, NCI-H358 cells, 5 days, CellTiter-Glo. The protocol:
Determination of NCI-H358 cell proliferation inhibition
The effect of the compound of the present invention on proliferation of human non-small cell lung cancer cell line NCI-H358 is evaluated by luminescent cell viability assay.
as §1
The compound was dissolved in DMSO (Sigma, Cat. No. D5879) and diluted to 5 mM. The resulting solution was serially diluted 4-fold with DMSO to a minimum concentration of […], and each concentration point was diluted 50-fold with RPMI 1640 Medium (Thermo Fisher Scientific, Cat. No. 11995073). When the IC50 value of the compound was low, the initial concentration of the compound was further reduced.
NCI-H358 cells (ATCC, Cat. No. CRL-5807) were cultured in RPMI 1640 Complete Medium [RPMI 1640 Medium was supplemented with 10% FBS (GBICO, Cat. No. 10099-141) and 100 units/mL Penicillin-Streptomycin (Thermo Fisher Scientific, Cat. No. 15140122)]. The cells (15,000 cells/mL) were seeded in 90 μL of Complete Medium on a 96-well plate. After culturing overnight, 10 μL of compound solution was added to each well and cultured at 37° C. in a 5% CO2 incubator for 5 days. According to the instruction from the CellTilter-Glo (CTG) kit (Promega, Cat. No. G7572), the cell culture plate was removed from incubator and equilibrated to room temperature. The cells were lysed fully with 50 μL of CTG reagent and placed at room temperature for 10 min. A luminescence signal was read by the microplate reader (EnVision, Perkin Elmer). […] An inhibition curve of the compound was plotted by XLfit software and the inhibitory IC50 was calculated.
Background: In ATP-based viability assays light output follows the ATP content of the culture.

For orientation: pIC50 means the negative decadic logarithm of the IC50, by convention in mol/L.

Molecules are shown by their SMILES. pIC50: −log10 of the molar value. Structures can show the parent of a compound that is named as a salt.

As for `Cn1c(N2CCC3(CCC[C@H]3N)CC2)ncc(Sc2ccnc3[nH]ccc23)c1=O` [Compound 1, (R)-5-((1H-pyrrolo[2,3-b]pyridin-4-yl)thio)-2-(1-amino-8-azaspiro[4.5]decan-8-yl)-3-methylpyrimidin-4(3H)-one hydrochloride], the pIC50 is 7.64 in assay [1] and 6.51 in assay [2].

With `Cn1c(N2CCC3(CCC[C@H]3N)CC2)ncc(Sc2ccnc3c2ccn3C)c1=O` [Compound 2, (R)-2-(1-amino-8-azaspiro[4.5]decan-8-yl)-3-methyl-5-((1-methyl-1H-pyrrolo[2,3-b]pyridin-4-yl)thio)pyrimidin-4(3H)-one formate], the pIC50 was 7.70 in assay [1] and 6.42 in assay [2].

On to `Cn1c(N2CCC3(CCC[C@H]3N)CC2)ncc(Sc2cccc3[nH]ncc23)c1=O` [Compound 3, (R)-5-((1H-indazole-4-yl)thio)-2-(1-amino-8-azaspiro[4.5]decan-8-yl)-3-methylpyrimidin-4(3H)-one hydrochloride], for which the negative-log IC50 (pIC50) in assay [1] is 7.70; in assay [2], 6.36.

Turning to `Cn1c(N2CCC3(CCC[C@H]3N)CC2)ncc(Sc2cccn3nccc23)c1=O` [Compound 4, (R)-2-(1-amino-8-azaspiro[4.5]decan-8-yl)-3-methyl-5-(pyrazolo[1,5-a]pyridin-4-ylthio)pyrimidin-4(3H)-one formate], the pIC50 is 6.90 in assay [1] and 5.63 in assay [2].

In the case of `Cn1c(N2CCC3(CCC[C@H]3N)CC2)ncc(Sc2ccn3nccc3c2)c1=O` [Compound 5, (R)-2-(1-amino-8-azaspiro[4.5]decan-8-yl)-3-methyl-5-(pyrazolo[1,5-a]pyridin-5-ylthio)pyrimidin-4(3H)-one hydrochloride], the pIC50 in assay [1] is 6.10.

Regarding `Cn1c(N2CCC3(CCC[C@H]3N)CC2)ncc(Sc2ccc3[nH]ncc3c2)c1=O` [Compound 6, (R)-5-((1H-indazole-5-yl)thio)-2-(1-amino-8-azaspiro[4.5]decan-8-yl)-3-methylpyrimidin-4(3H)-one hydrochloride], the negative logarithm of the IC50 (pIC50) in assay [1] was 6.06.

Turning to `Cn1c(N2CCC3(CCC[C@H]3N)CC2)ncc(Sc2ccn3nccc3c2Cl)c1=O` [Compound 8, (R)-2-(1-amino-8-azaspiro[4.5]decan-8-yl)-5-((4-chloropyrazolo[1,5-a]pyridin-5-yl)thio)-3-methylpyrimidin-4(3H)-one formate], the pIC50 is 8.07 in assay [1] and 6.51 in assay [2].

`Cn1nc2ccc(Sc3cnc(N4CCC5(CCC[C@H]5N)CC4)n(C)c3=O)c(Cl)c2c1C#N` [Compound 9, (R)-5-((2-(1-amino-8-azaspiro[4.5]decan-8-yl)-1-methyl-6-oxo-1,6-dihydropyrimidin-5-yl)thio)-4-chloro-2-methyl-2H-indazole-3-carbonitrile formate]: the pIC50 was 8.06 in assay [1] and 5.87 in assay [2].

Take `Cn1cc2c(Cl)c(Sc3cnc(N4CCC5(CC4)COC[C@H]5N)n(C)c3=O)ccc2n1` [Compound 10, (S)-2-(4-amino-2-oxa-8-azaspiro[4.5]decan-8-yl)-5-((4-chloro-2-methyl-2H-indazole-5-yl)thio)-3-methylpyrimidin-4(3H)-one]: the figures for the pIC50 in assay [1] and in assay [2] were 7.44 and 5.75, respectively.

In the case of `C[C@@H]1OCC2(CCN(c3ncc(Sc4ccc5nn(C)cc5c4Cl)c(=O)n3C)CC2)[C@@H]1N` [Compound 11, 2-((3S,4S)-4-amino-3-methyl-2-oxa-8-azaspiro[4.5]decan-8-yl)-5-((4-chloro-2-methyl-2H-indazole-5-yl)thio)-3-methylpyrimidin-4(3H)-one formate], the results for the pIC50 in assay [1] and in assay [2] were 8.40 and 6.78, respectively.

Take `C[C@@H]1OCC2(CCN(c3ncc(Sc4ccn5nccc5c4Cl)c(=O)n3C)CC2)[C@@H]1N` [Compound 12, 2-((3S,4S)-4-amino-3-methyl-2-oxa-8-azaspiro[4.5]decan-8-yl)-5-((4-chloropyrazolo[1,5-a]pyridin-5-yl)thio)-3-methylpyrimidin-4(3H)-one formate]: the figures for the negative-log IC50 (pIC50) in assay [1] and in assay [2] were 8.51 and 6.58, respectively.

As to `Cn1c(N2CCC3(CCC[C@H]3N)CC2)nc(N)c(Sc2cccc3[nH]ncc23)c1=O` [Compound 13, (R)-5-((1H-indazole-4-yl)thio)-6-amino-2-(1-amino-8-azaspiro[4.5]decan-8-yl)-3-m ethylpyrimidin-4(3H)-one formate], the pIC50 in assay [1] is 8.06.

With `C[C@@H]1OCC2(CCN(c3nc(N)c(Sc4ccc5nn(C)cc5c4Cl)c(=O)n3C)CC2)[C@@H]1N` [Compound 14, 6-Amino-2-((3S,4S)-4-amino-3-methyl-2-oxa-8-azaspiro[4.5]decan-8-yl)-5-((4-chloro-2-methyl-2H-indazole-5-yl)thio)-3-methylpyrimidin-4(3H)-one formate], the negative logarithm of the IC50 (pIC50) in assay [1] was 8.60; in assay [2], 6.97.

With `C[C@@H]1OCC2(CCN(c3nc(N)c(Sc4ccn5nccc5c4Cl)c(=O)n3C)CC2)[C@@H]1N` [Compound 15, 6-Amino-2-((3S,4S)-4-amino-3-methyl-2-oxa-8-azaspiro[4.5]decan-8-yl)-5-((4-chloropyrazolo[1,5-a]pyridine-5-yl)thio)-3-methylpyrimidin-4(3H)-one formate], the negative-log IC50 (pIC50) was 8.57 in assay [1] and 6.47 in assay [2].

As to `Cn1cc2c(Cl)c(Sc3cnc(N4CCC(C)(CN)CC4)n(C)c3=O)ccc2n1` [Compound 16, 2-(4-(Aminomethyl)-4-methylpiperidin-1-yl)-5-((4-chloro-2-methyl-2H-indazole-5-yl)thio)-3-methylpyrimidin-4(3H)-one formate], in assay [1], the pIC50 is 7.25.

As for `C[C@@H]1OCC2(CCN(c3ncc(Sc4ccnc5c4ccn5C)c(=O)n3C)CC2)[C@@H]1N` [Compound 17, 2-((3S,4S)-4-amino-3-methyl-2-oxa-8-azaspiro[4.5]decan-8-yl)-3-methyl-5-((1-methyl-1H-pyrrolo[2,3-b]pyridin-4-yl)thio)pyrimidin-4(3H)-one formate], the figures for the negative logarithm of the IC50 (pIC50) in assay [1] and in assay [2] were 7.85 and 6.27, respectively.

As to `C[C@@H]1OCC2(CCN(c3ncc(Sc4ccnc5[nH]ccc45)c(=O)n3C)CC2)[C@@H]1N` [Compound 18, 5-((1H-pyrrolo[2,3-b]pyridin-4-yl)thio)-2-((3S,4S)-4-amino-3-methyl-2-oxa-8-azaspiro[4.5]decan-8-yl)-3-methylpyrimidin-4(3H)-one formate], the pIC50 in assay [1] was 8.26; in assay [2], 6.47.

On to `[2H]C([2H])([2H])n1c(N2CCC3(CC2)CO[C@@H](C)[C@H]3N)ncc(Sc2ccc3nn(C)cc3c2Cl)c1=O` [Compound 19, 2-((3S,4S)-4-amino-3-methyl-2-oxa-8-azaspiro[4.5]decan-8-yl)-5-((4-chloro-2-methyl-2H-indazole-5-yl)thio)-3-(methyl-d3)pyrimidin-4(3H)-one], for which the pIC50 was 7.96 in assay [1] and 6.65 in assay [2].
